Consider 25 molecules from US6803380B1, “5-aryl-1h-1,2,4-triazole compounds as inhibitors of cyclooxygenase-2 and pharmaceutical compositions containing them” (Laboratoire Theramex, priority 1999, dated 2004).

Structures are written as SMILES. Read-outs that look alike come from different tables or passages of the source.

In data set [1] the target is T1, COX-2 (Ovis aries, UniProt P79208).
T1 construct: purified COX-2 from ewe placenta; purchased Cayman Chemicals; host or cells: ewe placenta (tissue-purified)
T1 sequence (P79208 17-603): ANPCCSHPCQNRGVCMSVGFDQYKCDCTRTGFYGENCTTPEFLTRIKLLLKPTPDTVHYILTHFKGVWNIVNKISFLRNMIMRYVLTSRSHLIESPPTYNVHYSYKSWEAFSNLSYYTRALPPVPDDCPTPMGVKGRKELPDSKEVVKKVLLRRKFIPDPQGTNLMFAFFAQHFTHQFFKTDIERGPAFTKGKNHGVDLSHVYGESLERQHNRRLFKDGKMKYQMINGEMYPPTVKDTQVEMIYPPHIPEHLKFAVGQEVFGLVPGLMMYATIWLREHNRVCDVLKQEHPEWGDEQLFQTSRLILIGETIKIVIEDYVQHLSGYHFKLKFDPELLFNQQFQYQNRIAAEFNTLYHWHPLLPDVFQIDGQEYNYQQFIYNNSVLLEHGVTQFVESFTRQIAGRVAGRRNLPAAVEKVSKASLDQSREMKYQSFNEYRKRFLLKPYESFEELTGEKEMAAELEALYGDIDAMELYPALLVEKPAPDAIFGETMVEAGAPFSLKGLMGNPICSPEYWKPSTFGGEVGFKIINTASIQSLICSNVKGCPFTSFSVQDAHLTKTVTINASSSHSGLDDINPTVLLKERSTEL
In words: Inhibition of purified COX-2 activity in vitro (PGE2 by enzymo-immunoassay). The format is biochemical, ewe. How it is done:
(§1) Example compounds according to the invention were tested for their ability to inhibit COX-1 and/or COX-2 activities in vitro. Purified COX-1 from ram seminal vesicles and purified COX-2 from ewe placenta (both from Cayman Chemicals) were incubated for 10 minutes at 25° C. in the presence of their substrate, arachidonic acid (5 μM), with or without test compounds or standard inhibitors. Prostaglandin E2, the reaction product, was measured by enzymo-immunoassay (R&D Systems). Each individual value results from duplicate determinations. Final inhibition data are means±standard errors of at least (3) independent experiments performed on as many different days.

The target in data set [2] is T2, COX-1 (Ovis aries, UniProt P05979).
T2 construct: Purified COX-1 from ram seminal vesicles; purchased Cayman Chemicals; host or cells: ram seminal vesicles (tissue-purified)
T2 sequence (P05979 25-600): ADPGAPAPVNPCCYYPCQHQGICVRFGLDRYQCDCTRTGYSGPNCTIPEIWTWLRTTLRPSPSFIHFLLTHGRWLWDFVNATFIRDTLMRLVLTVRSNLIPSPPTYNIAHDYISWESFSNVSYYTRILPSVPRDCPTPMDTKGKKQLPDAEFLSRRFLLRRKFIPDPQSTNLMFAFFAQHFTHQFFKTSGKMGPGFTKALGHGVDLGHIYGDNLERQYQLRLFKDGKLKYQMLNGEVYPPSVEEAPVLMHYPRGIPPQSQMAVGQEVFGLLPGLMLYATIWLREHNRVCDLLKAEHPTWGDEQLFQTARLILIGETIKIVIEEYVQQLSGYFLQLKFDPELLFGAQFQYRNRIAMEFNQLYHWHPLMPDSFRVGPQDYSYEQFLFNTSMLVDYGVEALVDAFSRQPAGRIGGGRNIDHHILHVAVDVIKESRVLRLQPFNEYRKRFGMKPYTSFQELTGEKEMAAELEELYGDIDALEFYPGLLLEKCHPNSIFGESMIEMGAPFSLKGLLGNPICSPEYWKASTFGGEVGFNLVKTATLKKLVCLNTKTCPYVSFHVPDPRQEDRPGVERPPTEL
In words: Inhibition of purified COX-1 activity in vitro (PGE2 by enzymo-immunoassay). The format is biochemical, ram. To be noted: for % COX-1 inhibition: negative sign = inhibition. How it is done:
as §1

Setting [3] is: concentration 1 μM, read-out: % COX-2 inhibition.

For `CS(=O)(=O)c1ccc(-c2nc(C(F)(F)F)nn2-c2cccnc2)cc1.Cl`, the melting point – broadly, the temperature of the solid-liquid transition – was 180 °C.
Same read-out and setting: as for `Cc1nc(-c2ccc(S(C)(=O)=O)cc2)n(-c2ccc(F)cc2)n1` [Example 2, 1-(4-fluoro-phenyl)-3-methyl-5-(4-methylsulfonyl-phenyl)-1H-1,2,4-triazole], the figure is 180 °C.
Molecule `Cc1nc(-c2ccc(S(C)(=O)=O)cc2)n(-c2ccc(Cl)cc2)n1` [Example 3, 1-(4-chloro-phenyl)-3-methyl-5-(4-methylsulfonyl-phenyl)-1H-1,2,4-triazole] registered a melting point of 186 °C. In data set [1] (concentration 1 μM), the “selective inhibition of COX-2 (in words)” value is “able to inhibit COX-2 selectively”. For the same molecule, in data set [1] (setting [3]), the inhibition – broadly, how much of the control response was suppressed – at 1 µM turned out to be 19 ± 2.6%. In data set [2] (concentration 1 μM), the “inhibition of COX-1 (in words)” value was “did not show any significant inhibition of COX-1” and the “% COX-1 inhibition” value is −2 ± 5.7%.
In the case of `Cc1ccc(-n2nc(C)nc2-c2ccc(S(C)(=O)=O)cc2)cc1` [Example 4, 3-methyl-1-(4-methyl-phenyl)-5-(4-methylsulfonyl-phenyl)-1H-1,2,4-triazole], the melting point was 176 °C.
The molecule `Cc1nc(-c2ccc(S(C)(=O)=O)cc2)n(-c2ccccc2)n1` [Example 5, 3-methyl-5-(4-methylsulfonyl-phenyl)-1-phenyl-1H-1,2,4-triazole] returned a melting point of 146 °C.
On the same count and under the same terms, the figure for `Cc1nc(-c2ccc(S(C)(=O)=O)cc2)n(-c2ccccc2Cl)n1` [Example 6, 1-(2-chloro-phenyl)-3-methyl-5-(4-methylsulfonyl-phenyl)-1H-1,2,4-triazole] is 170 °C; for `Cc1nc(-c2ccc(S(C)(=O)=O)cc2)n(-c2cccc(Cl)c2)n1` [Example 7, 1-(3-chloro-phenyl)-3-methyl-5-(4-methylsulfonyl-phenyl)-1H-1,2,4-triazole] it is 130 °C; for `Cc1nc(-c2ccc(S(C)(=O)=O)cc2)n(-c2ccc(Br)cc2)n1` [Example 9, 1-(4-bromo-phenyl)-3-methyl-5-(4-methylsulfonyl-phenyl)-1H-1,2,4-triazole] it is 188 °C.
Regarding `COc1ccc(-n2nc(C)nc2-c2ccc(S(C)(=O)=O)cc2)cc1` [Example 10, 1-(4-methoxy-phenyl)-3-methyl-5-(4-methylsulfonyl-phenyl)-1H-1,2,4-triazole], the melting point worked out at 128 °C. The “selective inhibition of COX-2 (in words)” value in data set [1] (concentration 1 μM) is recorded as “able to inhibit COX-2 selectively”. Moreover, the inhibition at 1 µM in data set [1] (setting [3]) was 32 ± 4.5%. In data set [2] (concentration 1 μM), the “inhibition of COX-1 (in words)” value is on record as “did not show any significant inhibition of COX-1” and the “% COX-1 inhibition” value is reported as −4 ± 14.6%.
`Cc1nc(-c2ccc(S(C)(=O)=O)cc2)n(-c2ccc(F)cc2F)n1` [Example 11, 1-(2,4-difluoro-phenyl)-3-methyl-5-(4-methylsulfonyl-phenyl)-1H-1,2,4-triazole] returned a melting point of 160 °C.
Still for that read-out and setting: the figure for `Cc1nc(-c2ccc(S(C)(=O)=O)cc2)n(-c2ccc([N+](=O)[O-])cc2)n1` [Example 12, 3-methyl-5-(4-methylsulfonyl-phenyl)-1-(4-nitro-phenyl)-1H-1,2,4-triazole] is 180 °C.
On the same count and under the same terms, as for `Cc1nc(-c2ccc(S(C)(=O)=O)cc2)n(-c2ccc(F)c(F)c2)n1` [Example 13, 1-(3,4-difluoro-phenyl)-3-methyl-5-(4-methylsulfonyl-phenyl)-1H-1,2,4-triazole], the figure is 194 °C; as for `COc1ccc(-n2nc(C)nc2-c2ccc(S(C)(=O)=O)cc2)cc1OC` [Example 14, 1-(3,4-dimethoxy-phenyl)-3-methyl-5-(4-methylsulfonyl-phenyl)-1H-1,2,4-triazole], 186 °C.
In turn, `Cc1nc(-c2ccc(S(C)(=O)=O)cc2)n(-c2ccc(N(C)C)cc2)n1` [Example 15, 1-(4-dimethylamino-phenyl)-3-methyl-5-(4-methylsulfonyl-phenyl)-1H-1,2,4-triazole] showed a melting point of 200 °C. Besides, the “selective inhibition of COX-2 (in words)” value in data set [1] (concentration 1 μM) is “able to inhibit COX-2 selectively”. For the same molecule, the inhibition at 1 µM in data set [1] (setting [3]) is 18 ± 7%. In addition, in data set [2] (concentration 1 μM), the “inhibition of COX-1 (in words)” value is on record as “did not show any significant inhibition of COX-1” and the “% COX-1 inhibition” value is listed as “+2 ± 7.0%”.
Molecule `CS(=O)(=O)c1ccc(-c2nc(C(F)(F)F)nn2-c2ccc(F)cc2)cc1` [Example 20, 1-(4-fluoro-phenyl)-5-(4-methylsulfonyl-phenyl)-3-trifluoromethyl-1H-1,2,4-triazole] returned a melting point of 230 to 232 °C.
On the same count and under the same terms, the figure for `CS(=O)(=O)c1ccc(-c2nc(C(F)(F)F)nn2-c2ccc(Cl)cc2)cc1` [Example 21, 1-(4-chloro-phenyl)-5-(4-methylsulfonyl-phenyl)-3-trifluoromethyl-1H-1,2,4-triazole] is 190 to 192 °C; for `CS(=O)(=O)c1ccc(-c2nc(C(F)(F)F)nn2C2CCCCC2)cc1` [Example 22, 1-(cyclohexyl)-5-(4-methylsulfonyl-phenyl)-3-trifluoromethyl-1H-1,2,4-triazole] it is 136 °C; for `COc1ccc(Cn2nc(C(F)(F)F)nc2-c2ccc(S(C)(=O)=O)cc2)cc1OC` [Example 23, 1-(3,4-dimethoxy-phenyl-methyl)-5-(4-methylsulfonyl-phenyl)-3-trifluoromethyl-1H-1,2,4-triazole] it is 142 °C.
The same measure, in the same setting: as for `COc1ccc(-n2nc(C(F)(F)F)nc2-c2ccc(S(C)(=O)=O)cc2Cl)cc1` [Example 24, 5-(2-chloro-4-methylsulfonyl-phenyl)-1-(4-methoxy-phenyl)-3-trifluoromethyl-1H-1,2,4-triazole], the figure is 148 °C.
Still for that read-out and setting: the figure for `CS(=O)(=O)c1ccc(-c2nc(C(F)(F)F)nn2-c2ccc(S(C)(=O)=O)cc2)cc1` [Example 26, 1,5-di-(4-methylsulfonyl-phenyl)-3-trifluoromethyl-1H-1,2,4-triazole] is 214 °C.
Take `COc1ccc(-n2nc(C(F)(F)F)nc2-c2ccc(S(C)(=O)=O)cc2)cc1OC` [Example 27, 1-(3,4-dimethoxy-phenyl)-5-(4-methylsulfonyl-phenyl)-3-trifluoromethyl-1H-1,2,4-triazole]: the melting point was 140 °C.
The same measure, in the same setting: as for `CS(=O)(=O)c1ccc(-c2nc(C(F)(F)F)nn2-c2ccc3c(c2)OCO3)cc1` [Example 28, 1-(3,4-methylenedioxy-phenyl)-5-(4-methylsulfonyl-phenyl)-3-trifluoromethyl-1H-1,2,4-triazole], the figure is 185 °C.
On the same count and under the same terms, the figure for `COc1ccc(-n2nc(C(F)(F)F)nc2-c2ccc(S(C)(=O)=O)cc2)cc1F` [Example 33, 1-(3-fluoro-4-methoxy-phenyl)-5-(4-methylsulfonyl-phenyl)-3-trifluoromethyl-1H-1,2,4-triazole] is 180 °C.
On to `COc1ccc(-n2nc(C(F)(F)F)nc2-c2ccc(S(N)(=O)=O)cc2)cc1` [Example 34, 1-(4-methoxy-phenyl)-5-(4-aminosulfonyl-phenyl)-3-trifluoromethyl-1H-1,2,4-triazole], for which, in data set [1] (concentration 1 μM), the “selective inhibition of COX-2 (in words)” value is listed as “able to inhibit COX-2 selectively”. In addition, the inhibition at 1 µM in data set [1] (setting [3]) came to 78 ± 2%. In data set [1] (same concentration, 1 μM), the “COX-2 inhibitory potency compared with nimesulide (in words)” value is recorded as “even more potent”. In addition, in data set [2] (concentration 1 μM), the “inhibition of COX-1 (in words)” value is “did not show any significant inhibition of COX-1” and the “% COX-1 inhibition” value is −16 ± 10%.
As for `CS(=O)(=O)Nc1ccc([N+](=O)[O-])cc1Oc1ccccc1` [Nimesulide, reference compound], in data set [1] (read-out: % COX-2 inhibition), the inhibition at 0.1 µM is 23 ± 5.4%, the inhibition at 1 µM was found to be 30 ± 3.2% and the inhibition at 10 µM was found to be 50%. The “% COX-1 inhibition” value in data set [2] (concentration 0.1 μM) is given as “+7 ± 6.6%”. In data set [2] (concentration 1 μM), the “% COX-1 inhibition” value is given as “+16 ± 12.2%”. For the same molecule, the “% COX-1 inhibition” value in data set [2] (concentration 10 μM) is on record as “+13 ± 8.3%”.
